According to article PMC13598332, “Selective activation of tetrodotoxin-sensitive sodium channels by AaH-II drives arrhythmogenic late Na^+ current in the heart” (Europace, 2026):
Where two headings read alike, the source gives them in different places.

What was measured:
[1] = test system: adult rat ventricular cardiomyocytes; assay: Calcium imaging (SCR events) in isolated rat cardiomyocytes; format: cell-based
Method: Eleven-week-old Wistar Han rats were euthanized by intraperitoneal (i.p.) injection of a lethal dose of pentobarbital (140 mg/kg, Euthasol®). Subsequently, the hearts were quickly excised and rinsed in cold calcium-free Tyrode solution with the following composition (in mM): 118 NaCl, 4.17 KCl, 1.2 MgSO4, 1.2 KH2PO4, 21 NaHCO3, 11 glucose, and 5 taurine, at pH 7.4. The aorta was promptly cannulated, and the hearts were perfused in a retrograde fashion with warm (37–38°C) Tyrode containing 1.25 mM CaCl2 to flush the coronary arteries of blood and then with a Tyrode solution supplemented with 1 mg/mL collagenase type 2 (Worthington Biochemical Corp, Lakewood, NJ) and 0.2 U.mL^−1 protease type XIV (Sigma, Poole, UK) during 15–20 min. Once enzymatic digestion is completed, ventricles were shredded into small pieces with surgical scissors in 0.5 mM Ca^2+ Tyrode solution, filtered through a 200-µm mesh, and then resuspended in 1 mM Ca^2+ Tyrode solution for 1 h at RT. Isolated cardiomyocytes were incubated in the dark with Fura-2-AM calcium probe (2 µM in 20% v/v DMSO; Life Technologies) for 15 min. Cardiomyocytes were then loaded onto the IonOptix system (IonOptix Corporation, U.S.A.) and perfused with warm (37°C) Tyrode solution. Cardiomyocytes were stimulated at 0.5 Hz using a MyoPacer field stimulator (20 V, 7 ms) to achieve steady state. Fura-2 fluorescence (F) at 510 nm was used to measure cytoplasmic Ca^2+ concentration variation by exciting with UV light at 340 and 380 nm. Cells were paced for 1 to 2 min, ensuring stabilization of the signals, and the effects of the peptides were measured at the end of a 5 min application time. 30-s-long periods were used as the unit duration (representing 15 Ca^2+ transients) during control and after the perfusion of the compound to count the number of arrhythmogenic transients.

hNav1.2 = hNav1.2 (Homo sapiens, UniProt Q99250); format: cell-based
[2] = test system: adult rat ventricular myocytes; format: cell-based; conditions: HP −120 mV, 1-s pulse to −20 mV
hNav1.5 = hNav1.5 (Homo sapiens, UniProt Q14524); assay: Manual patch-clamp on HEK293-Nav1.5; format: cell-based; conditions: 10 nM; HP −120 mV, 1000-ms step to −20 mV, RT
Method: Whole-cell Nav currents were recorded at RT from HEK293 stably expressing hNav1.5, using an Axopatch 200A amplifier (Axon Instruments, Molecular Devices). Voltage-clamp protocols were applied using the pClamp 10.4 software suite (Axon Instruments), interfaced with the electrophysiological setup through a Digidata 1440A digitizer (Axon Instruments). Patch-clamp pipettes were fabricated from borosilicate glass capillaries (outer diameter: 1.5 mm; inner diameter: 0.86 mm; Sutter Instrument) using a P-97 micropipette puller (Sutter Instrument), yielding a pipette resistance of 0.8–1.5 MΩ when filled with the internal solution. The internal solution contained (in mM) 10 CsCl, 110 CsF, 10 NaCl, 10 EGTA, and 10 HEPES (pH 7.2, osmolarity 280 mOsm). The external solution contained (in mM) 100 NaCl, 4 KCl, 40 NMDG, 2 CaCl2, 1 MgCl2, 5 glucose, and 10 HEPES (pH 7.4, osmolarity 298 mOsm). All chemicals were purchased from Sigma-Aldrich. After 80% series resistance compensation, 1000-ms depolarizing steps to −20 mV were applied from a HP of −120 mV to record sodium current under control conditions, following application of 10 nM AaH-II*. Sweeps were delivered every 5 s. Current signals were filtered at 10 kHz before digitization at 50 kHz and storage. […] Data were compiled and analysed using ClampFit 11.2 (Axon Instruments), Microsoft Excel, and GraphPad Software Prism.

hNav1.4 = hNav1.4 (Homo sapiens, UniProt P35499); format: cell-based
hNav1.3 = hNav1.3 (Homo sapiens, UniProt Q9NY46); format: cell-based
hNav1.1 = hNav1.1 (Homo sapiens, UniProt P35498); format: cell-based
Wistar-Han rats = format: in vivo, rat; conditions: for QTc / RR / P wave / PR / QRS / T wave area: mean ± SEM
hNav1.7 = hNav1.7 (Homo sapiens, UniProt Q15858); format: cell-based
[3] = highest effective AaH-II* concentration
[4] = representative traces, test 0 mV

hNav1.7, sequence (Q15858 whole entry): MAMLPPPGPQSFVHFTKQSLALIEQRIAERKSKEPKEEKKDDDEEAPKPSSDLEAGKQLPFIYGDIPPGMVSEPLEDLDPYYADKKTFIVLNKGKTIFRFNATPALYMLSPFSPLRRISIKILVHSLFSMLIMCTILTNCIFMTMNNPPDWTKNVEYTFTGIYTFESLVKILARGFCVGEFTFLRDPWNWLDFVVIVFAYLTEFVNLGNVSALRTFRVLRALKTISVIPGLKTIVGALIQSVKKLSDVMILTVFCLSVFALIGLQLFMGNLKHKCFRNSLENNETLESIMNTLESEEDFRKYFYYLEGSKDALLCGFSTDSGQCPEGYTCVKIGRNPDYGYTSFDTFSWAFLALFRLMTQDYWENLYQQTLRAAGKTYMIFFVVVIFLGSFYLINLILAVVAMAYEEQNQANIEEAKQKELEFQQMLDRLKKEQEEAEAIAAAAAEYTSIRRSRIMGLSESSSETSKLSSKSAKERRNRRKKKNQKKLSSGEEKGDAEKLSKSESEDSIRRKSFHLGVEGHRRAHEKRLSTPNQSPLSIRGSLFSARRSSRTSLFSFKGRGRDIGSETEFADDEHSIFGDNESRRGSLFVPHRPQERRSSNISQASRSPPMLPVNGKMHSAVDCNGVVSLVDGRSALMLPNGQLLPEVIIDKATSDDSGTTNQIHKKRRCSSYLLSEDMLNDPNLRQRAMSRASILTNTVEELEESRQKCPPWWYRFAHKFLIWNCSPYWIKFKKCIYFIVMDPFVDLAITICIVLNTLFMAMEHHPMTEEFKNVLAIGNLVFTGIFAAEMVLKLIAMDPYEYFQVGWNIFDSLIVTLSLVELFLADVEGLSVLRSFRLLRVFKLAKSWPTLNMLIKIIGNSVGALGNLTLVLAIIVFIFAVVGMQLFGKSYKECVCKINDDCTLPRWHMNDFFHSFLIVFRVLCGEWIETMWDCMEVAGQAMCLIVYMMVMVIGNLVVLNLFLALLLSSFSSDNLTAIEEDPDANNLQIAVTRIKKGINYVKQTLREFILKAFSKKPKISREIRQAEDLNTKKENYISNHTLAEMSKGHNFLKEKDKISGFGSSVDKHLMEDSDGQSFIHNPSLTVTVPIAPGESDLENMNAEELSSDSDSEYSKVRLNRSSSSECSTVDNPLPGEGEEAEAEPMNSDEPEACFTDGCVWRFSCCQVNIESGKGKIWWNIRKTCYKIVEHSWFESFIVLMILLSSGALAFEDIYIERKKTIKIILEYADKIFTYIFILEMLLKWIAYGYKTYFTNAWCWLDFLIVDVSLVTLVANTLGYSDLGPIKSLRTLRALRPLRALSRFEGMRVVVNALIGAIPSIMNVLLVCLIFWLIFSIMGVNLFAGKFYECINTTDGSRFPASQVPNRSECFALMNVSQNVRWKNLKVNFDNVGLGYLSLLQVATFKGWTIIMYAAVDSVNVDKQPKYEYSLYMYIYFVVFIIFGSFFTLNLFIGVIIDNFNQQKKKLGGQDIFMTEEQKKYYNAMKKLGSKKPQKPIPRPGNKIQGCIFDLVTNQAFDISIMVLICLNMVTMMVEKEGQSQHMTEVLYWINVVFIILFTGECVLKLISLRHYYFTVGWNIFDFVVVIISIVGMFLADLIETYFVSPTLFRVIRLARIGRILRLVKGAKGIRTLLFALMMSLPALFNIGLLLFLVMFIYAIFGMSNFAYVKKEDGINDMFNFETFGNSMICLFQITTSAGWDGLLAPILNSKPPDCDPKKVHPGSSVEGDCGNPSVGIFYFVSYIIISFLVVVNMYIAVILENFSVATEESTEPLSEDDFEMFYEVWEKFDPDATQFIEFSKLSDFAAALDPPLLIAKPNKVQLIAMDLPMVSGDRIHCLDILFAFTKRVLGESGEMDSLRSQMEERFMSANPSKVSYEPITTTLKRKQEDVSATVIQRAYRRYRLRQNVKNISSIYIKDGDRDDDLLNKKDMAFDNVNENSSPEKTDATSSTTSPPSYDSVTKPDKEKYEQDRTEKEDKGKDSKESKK
hNav1.4, sequence (P35499 whole entry): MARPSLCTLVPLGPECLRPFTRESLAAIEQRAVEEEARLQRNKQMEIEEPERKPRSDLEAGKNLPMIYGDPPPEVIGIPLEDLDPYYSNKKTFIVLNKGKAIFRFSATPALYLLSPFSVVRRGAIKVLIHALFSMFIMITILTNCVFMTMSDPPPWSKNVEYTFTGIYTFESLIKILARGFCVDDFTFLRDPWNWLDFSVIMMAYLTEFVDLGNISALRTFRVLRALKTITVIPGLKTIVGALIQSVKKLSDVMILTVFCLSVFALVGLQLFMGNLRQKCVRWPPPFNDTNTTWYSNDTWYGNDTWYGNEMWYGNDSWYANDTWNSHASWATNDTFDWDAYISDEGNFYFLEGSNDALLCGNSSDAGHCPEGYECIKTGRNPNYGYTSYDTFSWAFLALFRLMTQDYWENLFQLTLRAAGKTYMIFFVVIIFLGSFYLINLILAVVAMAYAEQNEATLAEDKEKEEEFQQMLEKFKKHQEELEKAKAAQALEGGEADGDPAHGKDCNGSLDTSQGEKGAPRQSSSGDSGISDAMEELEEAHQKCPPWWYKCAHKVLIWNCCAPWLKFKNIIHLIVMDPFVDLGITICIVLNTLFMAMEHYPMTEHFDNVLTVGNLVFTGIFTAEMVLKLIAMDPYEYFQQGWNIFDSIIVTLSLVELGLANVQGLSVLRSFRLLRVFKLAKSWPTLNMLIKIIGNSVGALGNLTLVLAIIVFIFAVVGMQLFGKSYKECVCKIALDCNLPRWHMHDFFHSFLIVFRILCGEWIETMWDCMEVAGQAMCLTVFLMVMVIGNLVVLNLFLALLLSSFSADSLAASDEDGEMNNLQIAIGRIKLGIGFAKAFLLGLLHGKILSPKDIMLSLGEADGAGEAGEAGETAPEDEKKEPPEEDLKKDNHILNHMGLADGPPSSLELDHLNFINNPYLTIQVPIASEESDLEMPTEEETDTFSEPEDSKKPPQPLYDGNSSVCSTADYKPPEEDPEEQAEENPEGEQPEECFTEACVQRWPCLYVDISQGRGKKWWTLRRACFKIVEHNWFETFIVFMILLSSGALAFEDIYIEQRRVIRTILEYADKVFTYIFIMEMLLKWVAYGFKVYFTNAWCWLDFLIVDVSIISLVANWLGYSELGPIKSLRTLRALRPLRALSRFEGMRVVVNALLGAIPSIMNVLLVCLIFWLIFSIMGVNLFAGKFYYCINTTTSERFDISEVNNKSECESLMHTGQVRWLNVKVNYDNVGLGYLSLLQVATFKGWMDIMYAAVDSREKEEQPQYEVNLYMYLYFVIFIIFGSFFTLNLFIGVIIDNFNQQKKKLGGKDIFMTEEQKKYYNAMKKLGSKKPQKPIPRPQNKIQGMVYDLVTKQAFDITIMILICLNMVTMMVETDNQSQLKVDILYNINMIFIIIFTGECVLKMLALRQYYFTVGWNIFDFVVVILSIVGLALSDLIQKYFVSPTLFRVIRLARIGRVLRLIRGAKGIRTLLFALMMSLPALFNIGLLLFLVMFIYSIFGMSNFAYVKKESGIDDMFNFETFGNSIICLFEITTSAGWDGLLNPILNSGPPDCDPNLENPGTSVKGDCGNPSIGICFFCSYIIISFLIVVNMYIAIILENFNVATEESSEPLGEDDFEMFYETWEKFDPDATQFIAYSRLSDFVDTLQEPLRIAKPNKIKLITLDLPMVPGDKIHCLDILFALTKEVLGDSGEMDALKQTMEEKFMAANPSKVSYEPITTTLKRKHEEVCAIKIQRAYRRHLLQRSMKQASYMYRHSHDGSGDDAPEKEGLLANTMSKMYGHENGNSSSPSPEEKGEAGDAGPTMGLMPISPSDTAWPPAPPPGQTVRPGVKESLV

`CC[C@H](C)[C@H](NC(=O)[C@H](Cc1ccc(O)cc1)NC(=O)CNC(=O)[C@H](CC(=O)O)NC(=O)[C@H](CCCCN)NC(=O)[C@@H](N)C(C)C)C(=O)N[C@H](C(=O)N[C@@H](CC(=O)O)C(=O)N[C@@H](CC(=O)O)C(=O)N[C@H](C(=O)N[C@@H](CC(N)=O)C(=O)N[C@H]1CSSC[C@@H](C(=O)N[C@@H](Cc2c[nH]cn2)C(N)=O)NC(=O)[C@H](CCCCN)NC(=O)CNC(=O)[C@@H]2CCCN2C(=O)CNC(=O)[C@H](CCCCN)NC(=O)[C@H]([C@@H](C)O)NC(=O)[C@H](CCCNC(=N)N)NC(=O)[C@H](C(C)C)NC(=O)[C@H](Cc2c[nH]cn2)NC(=O)[C@H](CC(=O)O)NC(=O)[C@@H]2CCCN2C(=O)[C@H](CC(C)C)NC(=O)[C@H](CCCCN)NC(=O)[C@H](Cc2ccc(O)cc2)NC(=O)[C@@H]2CSSC[C@@H]3NC(=O)[C@H](CCC(=O)O)NC(=O)[C@H](CCC(=O)O)NC(=O)[C@H](CC(N)=O)NC(=O)[C@@H]4CSSC[C@H](NC(=O)[C@H](C)NC(=O)[C@H](CC(N)=O)NC(=O)CNC(=O)[C@H](Cc5ccc(O)cc5)NC(=O)[C@@H]5CCCN5C(=O)[C@H](CO)NC(=O)[C@H](C)NC(=O)[C@H](Cc5c[nH]c6ccccc56)NC(=O)[C@H](CCC(N)=O)NC(=O)[C@H](CSSC[C@H](NC(=O)[C@H](Cc5ccccc5)NC(=O)[C@H](Cc5ccc(O)cc5)NC(=O)[C@H]([C@@H](C)O)NC1=O)C(=O)NCC(=O)N[C@@H](CCCNC(=N)N)C(=O)N[C@@H](CC(N)=O)C(=O)N[C@@H](C)C(=O)N[C@@H](Cc1ccc(O)cc1)C(=O)N4)NC(=O)[C@H](Cc1ccc(O)cc1)NC(=O)CNC(=O)[C@H](CO)NC(=O)[C@H](CCC(=O)O)NC(=O)CNC(=O)[C@H](CCCCN)NC(=O)[C@H](CC(C)C)NC(=O)[C@H](CCCCN)NC(=O)[C@H]([C@@H](C)O)NC3=O)C(=O)N[C@@H](Cc1ccc(O)cc1)C(=O)N2)C(C)C)C(C)C` [AaH-II*] was tested, and the “average frequency of SCR events” value ([1]; 0.1 nM AaH-II*) was 14 SCR/min, the “cells presenting SCR events (SCR cells / cells)” value ([1]; 0.1 nM peptide, 0.5 Hz pacing, 37°C, 5 min application) was 13 out of 23 and the “calcium transient amplitude and time to peak” value ([1]; 1 or 3 nM AaH-II*) was “slightly reduce the amplitude of the calcium transients and slow the time to peak”. For the same molecule, the “hNav1.2 peak current inhibition” value (hNav1.2; above 1 nM) was “not observed”, the “INaL after 1 s depolarization” value (hNav1.2; hNav1.2, 10 nM) was “significant INaL current at 1 s depolarization” and the “shift in voltage-dependence of activation” value (shortened to “shift in voltage-dependence”) (hNav1.2; hNav1.2, 10 nM) was “lacked a significant shift in voltage-dependence of activation”. The “concentration at which INaL is triggered / becomes noticeable” value (hNav1.2; hNav1.2, representative traces, test 0 mV) was 0.1 nM, the “AUC and INaL at 1 s depolarization” value ([2]; 0.1 nM, n = 6 cardiomyocytes) was “half of the cells responded with an increased AUC and INaL” and the peak current amplitude ([2]; 0.1 nM, n = 6 cardiomyocytes) was “None of the cells witnessed an increase in peak current amplitude”. The “AUC and INaL at 1 s depolarization” value ([2]; 10 nM) was “significant increase in AUC and INaL in all cells recorded”, the “effect on peak current amplitude or INaL measured at 1 sec depolarization” value (hNav1.5) was “absence of effect” and the “INaL after 1 s depolarization” value (hNav1.4; 10 nM) was “lack of effects of AaH-II* on those two parameters”. For the same molecule, the “shift in voltage-dependence” value (hNav1.4; 10 nM) was “lack of effects of AaH-II* on those two parameters”, the “maximal INaL stimulation (maximal AUC)” value (hNav1.4; [3]) was “six” and the “concentration at which INaL is triggered / becomes noticeable” value (hNav1.4; [4]) was 0.3 nM. The “INaL after 1 s depolarization” value (hNav1.3; 10 nM) was “maintained INaL after 1 s pulse”, the “shift in voltage-dependence” value (hNav1.3; 10 nM) was “large AaH-II*-triggered hyperpolarizing shift in voltage-dependence of activation” and the “concentration at which INaL is triggered / becomes noticeable” value (hNav1.3; [4]) was 0.1 nM. The “INaL after 1 s depolarization” value (hNav1.1; 10 nM) was “maintained INaL after 1 s pulse”, the “shift in voltage-dependence” value (hNav1.1; 10 nM) was “large AaH-II*-triggered hyperpolarizing shift in voltage-dependence of activation” and the “maximal INaL stimulation (maximal AUC)” value (hNav1.1; [3]) was ~19 fold. The “concentration at which INaL is triggered / becomes noticeable” value (hNav1.1; [4]) was 0.1 nM, the “arrhythmic rats (rats / all rats)” value (Wistar-Han rats; AaH-II* 3 μg/kg i.v.) was “none of the rats were arrhythmic” and the QTc (Wistar-Han rats; AaH-II* 3 µg/kg i.v., QTc = QT/(RR/100)^1/2, n = 5) was 54.9 ± 5.2. The RR (Wistar-Han rats; AaH-II* 3 µg/kg i.v., anaesthetized rats, lead I, n = 5) was 153.7 ± 5.6 ms, the P wave (Wistar-Han rats; AaH-II* 3 µg/kg i.v., n = 5) was 17.5 ± 0.3 ms and the PR (Wistar-Han rats; AaH-II* 3 µg/kg i.v., n = 5) was 47.5 ± 1.4 ms. The QRS (Wistar-Han rats; AaH-II* 3 µg/kg i.v., n = 5) was 16.9 ± 1.0 ms, the T wave area (Wistar-Han rats; AaH-II* 3 µg/kg i.v., n = 5) was 1.8 ± 0.5 mV/ms and the “rats with A-V blocks/ PVCs (rats / all rats)” value (Wistar-Han rats; AaH-II* 15 μg/kg i.v.) was “in all rats”. For the same molecule, the P wave (Wistar-Han rats; AaH-II* 15 µg/kg i.v., n = 6) was 18.0 ± 0.8 ms, the PR (Wistar-Han rats; AaH-II* 15 µg/kg i.v., n = 6) was 53.2 ± 5.4 ms and the QRS (Wistar-Han rats; AaH-II* 15 µg/kg i.v., n = 6) was 18.0 ± 0.6 ms. For the same molecule, the RR (Wistar-Han rats; AaH-II* 15 µg/kg i.v., n = 6) was 181.6 ± 2.7 ms, the T wave area (Wistar-Han rats; AaH-II* 15 µg/kg i.v., n = 6) was 3.2 ± 0.5 mV/ms and the P wave (Wistar-Han rats; AaH-II* 30 µg/kg i.v., n = 6) was 18.9 ± 0.8 ms. For the same molecule, the PR (Wistar-Han rats; AaH-II* 30 µg/kg i.v., n = 6) was 53.8 ± 2.2 ms, the QRS (Wistar-Han rats; AaH-II* 30 µg/kg i.v., n = 6) was 17.8 ± 0.3 ms and the QTc (Wistar-Han rats; AaH-II* 30 µg/kg i.v., n = 6) was 69.5 ± 3.3. For the same molecule, the RR (Wistar-Han rats; AaH-II* 30 µg/kg i.v., n = 6) was 176.8 ± 12.3 ms, the T wave area (Wistar-Han rats; AaH-II* 30 µg/kg i.v., n = 6) was 8.1 ± 1.9 mV/ms and the “INaL after 1 s depolarization” value (hNav1.7; 10 nM) was “lacked sufficient INaL at 1 s depolarization”. For the same molecule, the “shift in voltage-dependence” value (hNav1.7; 10 nM) was “AaH-II*-mediated shift in voltage-dependence of activation” and the “concentration at which INaL is triggered / becomes noticeable” value (hNav1.7; [4]) was 1 nM.
